Patent publication US9206132B2, “Use of a novel aminopyridine derivative to prevent or treat cancer” (Medicinal Bioconvergence Research Center, priority 2012, dated 2015)

How the values were obtained:
AIMP2-DX2 [1] = assay: AIMP2-DX2 luciferase assay in pGL2-DX2 transfected H460 lung cancer cells; details: H460 transfected with pGL-DX-2, cultured 24 hours, 4 hours treatment, lower = more inhibition, N.C (DMSO) 8627
Method: (§1) After 24 hours in culture, transfected lung cancer cells were treated with the compounds of the library. 4 hours later, luciferase activity was measured with a luminometer using a luciferase assay kit according to a manufacturer protocol (Promega, US).
(§2) Lung cancer cell lines A549 and H460 were transfected with pGL-DX-2, cultured for 24 hours, and treated with the newly synthesized compounds. After further culturing for 4 hours, luciferase activity was measured.

AIMP2-DX2 [2] = assay: AIMP2-DX2 luciferase assay in pGL-DX-2 transfected A549 lung cancer cells; details: A549 transfected with pGL-DX-2, cultured 24 hours, 4 hours treatment, lower = more inhibition, N.C (DMSO) 20089
Method: as §1, §2

| Structure (SMILES) | AIMP2-DX2 Activity in H460 cells (AIMP2-DX2 [1]) | AIMP2-DX2 Activity in A549 cells (AIMP2-DX2 [2]) |
| --- | --- | --- |
| CCOC(=O)C(C)C(=O)Nc1ccc(Cl)cn1 (stereo not shown) [No. 1, ethyl 3-[(5-chloropyridin-2-yl)amino]-2-methyl-3-oxopropanoate] | 7668 | 5295 |
| CCOC(=O)CC(=O)Nc1cccc(C)n1 [No. 2, ethyl 3-[(6-methylpyridin-2-yl)amino]-3-oxopropanoate] | 7740 | 8070 |
| CCOC(=O)CC(=O)Nc1cnc2ccccc2c1 [No. 3, ethyl 3-oxo-3-(quinolin-3-ylamino)propanoate] | 5447 | 17967 |
| CCOC(=O)CC(=O)Nc1nc(C)ccc1C [No. 4, ethyl 3-[(3,6-dimethylpyridin-2-yl)amino]-3-oxopropanoate] | 4914 | 18252 |
| CCOC(=O)CC(=O)Nc1cc(O)ccn1 [No. 5, ethyl 3-[(4-hydroxypyridin-2-yl)amino]-3-oxopropanoate] | 4984 | 5721 |
| CCOC(=O)C(C)C(=O)Nc1cnc2ccccc2c1 (stereo not shown) [No. 6, ethyl 2-methyl-3-oxo-3-(quinolin-3-ylamino)propanoate] | 5083 | 6011 |
| CCOC(=O)C(C)C(=O)Nc1cccc(C)n1 (stereo not shown) [No. 7, ethyl 2-methyl-3-[(6-methylpyridin-2-yl)amino]-3-oxopropanoate] | 6082 | 6568 |
| CCOC(=O)CC(=O)Nc1ccc(Cl)cn1 [No. 8, ethyl 3-[(5-chloropyridin-2-yl)amino]-3-oxopropanoate] | 6348 | 8045 |
